According to PMC5218480 (PLoS ONE, 2017):

Tested on: MV-4-11 cells
Assay: Gene expression microarray analysis (Affymetrix PrimeView) and GSEA
Type: cell-based, human
Design: RFU PODN (11730768_x_at) / Fold change /veh PODN (11730768_x_at) / RFU LINC00158 (11744669_a_at) / Fold change /veh LINC00158 (11744669_a_at) / RFU DUSP10 (11751237_a_at) / Fold change /veh DUSP10 (11751237_a_at) / RFU ID3 (11757404_x_at) / Fold change /veh ID3 (11757404_x_at) / RFU PLEKHG5 (11737974_s_at) / Fold change /veh PLEKHG5 (11737974_s_at) / RFU LRRC4B (11730491_at) / Fold change /veh LRRC4B (11730491_at) / RFU GIMAP4 (11747438_a_at) / Fold change /veh GIMAP4 (11747438_a_at) / RFU KRT8 (11758183_x_at) / Fold change /veh KRT8 (11758183_x_at) / RFU CNN1 (11734310_a_at) / Fold change /veh CNN1 (11734310_a_at) / RFU VPS37D (11726825_at) / Fold change /veh VPS37D (11726825_at) / RFU C10orf10 (11716522_x_at) / Fold change /veh C10orf10 (11716522_x_at) / RFU KIR2DL2 /// KIR2DL4 /// KIR2DL5A /// KIR2DL5B /// KIR2DS1 /// KIR2DS2 /// KIR2DS3 /// KIR2DS4 /// KIR3DL3 /// KIR3DL3 /// KIR3DS1 (11738374_at) / Fold change /veh KIR2DL2 /// KIR2DL4 /// KIR2DL5A /// KIR2DL5B /// KIR2DS1 /// KIR2DS2 /// KIR2DS3 /// KIR2DS4 /// KIR3DL3 /// KIR3DL3 /// KIR3DS1 (11738374_at) / RFU C1QL1 (11718748_at) / Fold change /veh C1QL1 (11718748_at) / RFU TMPRSS4 (11747572_a_at) / Fold change /veh TMPRSS4 (11747572_a_at) / RFU HAMP (11756126_x_at) / Fold change /veh HAMP (11756126_x_at) / RFU RNFT2 (11725882_a_at) / Fold change /veh RNFT2 (11725882_a_at) / RFU NR4A2 (11747474_a_at) / Fold change /veh NR4A2 (11747474_a_at) / RFU ABCC12 (11746883_a_at) / Fold change /veh ABCC12 (11746883_a_at) / RFU TMEM136 (11760407_x_at) / Fold change /veh TMEM136 (11760407_x_at) / RFU CLDN22 /// WWC2 (11732394_at) / Fold change /veh CLDN22 /// WWC2 (11732394_at) / RFU HLA-DPB1 (11760878_x_at) / Fold change /veh HLA-DPB1 (11760878_x_at) / RFU SPINT1 (11716480_a_at) / Fold change /veh SPINT1 (11716480_a_at) / RFU GAP43 (11754022_s_at) / Fold change /veh GAP43 (11754022_s_at) / RFU A4GNT (11735810_at) / Fold change /veh A4GNT (11735810_at) / RFU PRB3 (11715151_x_at) / Fold change /veh PRB3 (11715151_x_at) / RFU TUBB4B (11761932_at) / Fold change /veh TUBB4B (11761932_at) / RFU CAPN14 (11732068_a_at) / Fold change /veh CAPN14 (11732068_a_at) / RFU TMCC2 (11721928_a_at) / Fold change /veh TMCC2 (11721928_a_at) / RFU IRGQ (11745062_a_at) / Fold change /veh IRGQ (11745062_a_at) / RFU FAM174B (11720279_a_at) / Fold change /veh FAM174B (11720279_a_at) / RFU TMPRSS4 (11748680_a_at) / Fold change /veh TMPRSS4 (11748680_a_at) / RFU FAM212B (11763350_a_at) / Fold change /veh FAM212B (11763350_a_at) / RFU PLEKHG5 (11743358_a_at) / Fold change /veh PLEKHG5 (11743358_a_at) / RFU ZSCAN30 (11745921_a_at) / Fold change /veh ZSCAN30 (11745921_a_at) / RFU CMKLR1 (11741424_a_at) / Fold change /veh CMKLR1 (11741424_a_at) / RFU LOC101060620 /// MAPK8IP1 (11723275_at) / Fold change /veh LOC101060620 /// MAPK8IP1 (11723275_at) / RFU SPTSSB (11747773_x_at) / Fold change /veh SPTSSB (11747773_x_at) / RFU PRSS12 (11739890_at) / Fold change /veh PRSS12 (11739890_at) / RFU BIN1 (11741810_x_at) / Fold change /veh BIN1 (11741810_x_at) / RFU WNT11 (11732464_a_at) / Fold change /veh WNT11 (11732464_a_at) / RFU C10orf10 (11716521_a_at) / Fold change /veh C10orf10 (11716521_a_at) / RFU C5orf56 (11738089_at) / Fold change /veh C5orf56 (11738089_at) / RFU CYB561 (11721691_x_at) / Fold change /veh CYB561 (11721691_x_at) / RFU ANKRD19P (11752326_a_at) / Fold change /veh ANKRD19P (11752326_a_at) / RFU OR2T12 /// OR2T33 /// OR2T8 (11738714_s_at) / Fold change /veh OR2T12 /// OR2T33 /// OR2T8 (11738714_s_at) / RFU VCAN (11748164_a_at) / Fold change /veh VCAN (11748164_a_at) / RFU JSRP1 (11732532_at) / Fold change /veh JSRP1 (11732532_at) / RFU KRTAP10-11 (11738290_x_at) / Fold change /veh KRTAP10-11 (11738290_x_at) / RFU MYO3A (11730013_a_at) / Fold change /veh MYO3A (11730013_a_at) / RFU EBF3 (11725865_a_at) / Fold change /veh EBF3 (11725865_a_at) / RFU CAMK2N1 (11719241_x_at) / Fold change /veh CAMK2N1 (11719241_x_at) / RFU C5orf56 (11738088_a_at) / Fold change /veh C5orf56 (11738088_a_at) / RFU OLFML3 (11715873_a_at) / Fold change /veh OLFML3 (11715873_a_at) / RFU LOC100653217 /// NTM (11731650_a_at) / Fold change /veh LOC100653217 /// NTM (11731650_a_at) / RFU MAPK11 (11762145_a_at) / Fold change /veh MAPK11 (11762145_a_at) / RFU FIZ1 (11724087_x_at) / Fold change /veh FIZ1 (11724087_x_at) / RFU OASL (11726364_x_at) / Fold change /veh OASL (11726364_x_at) / RFU SOX15 (11748057_x_at) / Fold change /veh SOX15 (11748057_x_at) / RFU CD79A (11719716_a_at) / Fold change /veh CD79A (11719716_a_at) / RFU HIST1H1D (11736915_at) / Fold change /veh HIST1H1D (11736915_at) / RFU CASKIN2 (11723855_a_at) / Fold change /veh CASKIN2 (11723855_a_at) / RFU LOC730098 (11760151_x_at) / Fold change /veh LOC730098 (11760151_x_at) / RFU OR4N2 (11742367_at) / Fold change /veh OR4N2 (11742367_at) / RFU PRRT2 (11749266_a_at) / Fold change /veh PRRT2 (11749266_a_at) / RFU SNX32 (11753110_a_at) / Fold change /veh SNX32 (11753110_a_at) / RFU CDHR5 (11726645_a_at) / Fold change /veh CDHR5 (11726645_a_at) / RFU RCAN1 (11760418_a_at) / Fold change /veh RCAN1 (11760418_a_at) / RFU FAM167A (11723789_a_at) / Fold change /veh FAM167A (11723789_a_at) / RFU FAM26E (11764081_at) / Fold change /veh FAM26E (11764081_at) / RFU ISYNA1 (11749810_s_at) / Fold change /veh ISYNA1 (11749810_s_at) / RFU ACY1 (11761880_at) / Fold change /veh ACY1 (11761880_at) / RFU 11764098_at / Fold change /veh 11764098_at / RFU SAMD14 (11745864_x_at) / Fold change /veh SAMD14 (11745864_x_at) / RFU NPB (11741838_a_at) / Fold change /veh NPB (11741838_a_at) / RFU TMPRSS6 (11731388_a_at) / Fold change /veh TMPRSS6 (11731388_a_at) / RFU KRTAP10-2 (11738614_at) / Fold change /veh KRTAP10-2 (11738614_at) / RFU ARHGAP8 /// PRR5-ARHGAP8 (11727945_x_at) / Fold change /veh ARHGAP8 /// PRR5-ARHGAP8 (11727945_x_at) / RFU KRTAP5-7 /// NADSYN1 (11734609_at) / Fold change /veh KRTAP5-7 /// NADSYN1 (11734609_at) / RFU RASL12 (11751679_a_at) / Fold change /veh RASL12 (11751679_a_at) / RFU CDKN2B (11736163_a_at) / Fold change /veh CDKN2B (11736163_a_at) / RFU PRF1 (11729649_at) / Fold change /veh PRF1 (11729649_at) / RFU, ZNF638 /// ZNF638-IT1 / Fold change vs veh, ZNF638 /// ZNF638-IT1 / RFU, PANK3 / Fold change vs veh, PANK3 / RFU, SH3YL1 / Fold change vs veh, SH3YL1 / RFU, ZEB2 / Fold change vs veh, ZEB2 / RFU, NRIP1 / Fold change vs veh, NRIP1 / RFU, PTTG1IP / Fold change vs veh, PTTG1IP / RFU, CAPN2 / Fold change vs veh, CAPN2 / RFU, MED14 / Fold change vs veh, MED14 / RFU, SNORA58 / Fold change vs veh, SNORA58 / RFU, C1orf63 / Fold change vs veh, C1orf63 / RFU, LRRFIP1 / Fold change vs veh, LRRFIP1 / RFU, NDUFAF7 / Fold change vs veh, NDUFAF7 / RFU, SLC12A2 / Fold change vs veh, SLC12A2 / RFU, IBTK / Fold change vs veh, IBTK / RFU, ESF1 / Fold change vs veh, ESF1 / Fold change vs veh, TMEM50B / RFU, TAOK1 / Fold change vs veh, TAOK1 / RFU, ACBD3 / Fold change vs veh, ACBD3 / RFU, TMA16 / Fold change vs veh, TMA16 / RFU, RWDD3 / Fold change vs veh, RWDD3 / RFU, BCAT1 / Fold change vs veh, BCAT1 / RFU, EDEM3 / Fold change vs veh, EDEM3 / RFU, TMEM33 / Fold change vs veh, TMEM33 / RFU, WDR75 / Fold change vs veh, WDR75 / RFU, AHCTF1 / Fold change vs veh, AHCTF1 / RFU, TFRC / Fold change vs veh, TFRC / RFU, ZDHHC17 / Fold change vs veh, ZDHHC17 / RFU, NOM1 / Fold change vs veh, NOM1 / RFU, ARL8B / Fold change vs veh, ARL8B / RFU, ZBTB11 / Fold change vs veh, ZBTB11 / RFU, TAMM41 / Fold change vs veh, TAMM41 / RFU, KIAA1704 /// LOC100996395 / Fold change vs veh, KIAA1704 /// LOC100996395 / RFU, ING1 / Fold change vs veh, ING1 / RFU, TRMT61B / Fold change vs veh, TRMT61B / RFU, FUBP3 / Fold change vs veh, FUBP3 / RFU, TP53 / Fold change vs veh, TP53 / RFU, TNKS2 / Fold change vs veh, TNKS2 / RFU, ZFP14 / Fold change vs veh, ZFP14 / RFU, ACTR2 / Fold change vs veh, ACTR2 / RFU, PPP3R1 / Fold change vs veh, PPP3R1 / RFU, PIK3R1 / Fold change vs veh, PIK3R1 / RFU, HNRNPA1 / Fold change vs veh, HNRNPA1 / RFU, RNF170 / Fold change vs veh, RNF170 / RFU, ZNF28 / Fold change vs veh, ZNF28 / RFU, RNGTT / Fold change vs veh, RNGTT / RFU, OGT / Fold change vs veh, OGT / RFU, BRD1 / Fold change vs veh, BRD1 / RFU, MARS / Fold change vs veh, MARS / RFU, ZNF655 / Fold change vs veh, ZNF655 / RFU, FAHD1 / Fold change vs veh, FAHD1 / RFU, BDP1 / Fold change vs veh, BDP1 / RFU, LRRCC1 / Fold change vs veh, LRRCC1 / RFU, ARID1A / Fold change vs veh, ARID1A / RFU, ZNF146 / Fold change vs veh, ZNF146 / RFU, ZNF330 / Fold change vs veh, ZNF330 / RFU, GPN3 / Fold change vs veh, GPN3 / RFU, C9orf123 / Fold change vs veh, C9orf123 / RFU, N4BP2L2 / Fold change vs veh, N4BP2L2 / RFU, ARFIP1 / Fold change vs veh, ARFIP1 / RFU, FAM179B / Fold change vs veh, FAM179B / RFU, BCL10 / Fold change vs veh, BCL10 / RFU, UHRF1BP1L / Fold change vs veh, UHRF1BP1L / RFU, BET1 / Fold change vs veh, BET1 / RFU, CNOT2 / Fold change vs veh, CNOT2 / RFU, ZNF268 / Fold change vs veh, ZNF268 / Fold change vs veh, ZNF507 / RFU, DGCR2 / Fold change vs veh, DGCR2 / RFU, WDSUB1 / Fold change vs veh, WDSUB1 / Fold change vs veh, HSP90B1 /// MIR3652 / RFU, ADSS / Fold change vs veh, ADSS / RFU, GK / Fold change vs veh, GK / RFU, ZNF148 / Fold change vs veh, ZNF148 / RFU, TAF9 / Fold change vs veh, TAF9 / RFU, SLC1A5 / Fold change vs veh, SLC1A5 / RFU, SLMO2 / Fold change vs veh, SLMO2 / RFU, ABCC4 / Fold change vs veh, ABCC4 / RFU, LOC101060439 /// RAP1B / Fold change vs veh, LOC101060439 /// RAP1B / RFU, RFX7 / Fold change vs veh, RFX7 / RFU, GTPBP10 / Fold change vs veh, GTPBP10 / RFU, CNEP1R1 / Fold change vs veh, CNEP1R1 / RFU, BIVM-ERCC5 /// ERCC5 / Fold change vs veh, BIVM-ERCC5 /// ERCC5 / RFU, ILF3 / Fold change vs veh, ILF3 / RFU 11762660_at / Fold change /veh 11762660_at / RFU VCAN (11757783_s_at) / Fold change /veh VCAN (11757783_s_at) / RFU DDX43 (11728927_at) / Fold change /veh DDX43 (11728927_at) / RFU KRT8 (11758188_x_at) / Fold change /veh KRT8 (11758188_x_at) / RFU NKD1 (11759106_at) / Fold change /veh NKD1 (11759106_at) / RFU SRD5A1 (11742802_a_at) / Fold change /veh SRD5A1 (11742802_a_at) / RFU TPSAB1 /// TPSB2 (11721975_s_at) / Fold change /veh TPSAB1 /// TPSB2 (11721975_s_at) / RFU GSTM3 (11746129_a_at) / Fold change /veh GSTM3 (11746129_a_at) / RFU IL23R (11737362_x_at) / Fold change /veh IL23R (11737362_x_at) / RFU TMEM51 (11727254_a_at) / Fold change /veh TMEM51 (11727254_a_at) / RFU PIWIL2 (11732686_x_at) / Fold change /veh PIWIL2 (11732686_x_at) / RFU ORM1 (11744905_x_at) / Fold change /veh ORM1 (11744905_x_at) / RFU CCDC152 (11743942_at) / Fold change /veh CCDC152 (11743942_at) / RFU ECM1 (11717891_a_at) / Fold change /veh ECM1 (11717891_a_at) / RFU IL23R (11748794_a_at) / Fold change /veh IL23R (11748794_a_at) / RFU TNFAIP8L3 (11732012_x_at) / Fold change /veh TNFAIP8L3 (11732012_x_at) / RFU MBOAT4 (11741988_at) / Fold change /veh MBOAT4 (11741988_at) / RFU 11764193_at / Fold change /veh 11764193_at / RFU TMEM53 (11763286_at) / Fold change /veh TMEM53 (11763286_at) / RFU MAGEB2 (11727129_at) / Fold change /veh MAGEB2 (11727129_at) / RFU TMEM200A (11744735_a_at) / Fold change /veh TMEM200A (11744735_a_at) / RFU CCDC152 (11751479_a_at) / Fold change /veh CCDC152 (11751479_a_at) / RFU FAM211A (11726209_a_at) / Fold change /veh FAM211A (11726209_a_at) / RFU RGS16 (11746705_a_at) / Fold change /veh RGS16 (11746705_a_at) / RFU VCAN (11755009_s_at) / Fold change /veh VCAN (11755009_s_at) / RFU RHOB (11743442_s_at) / Fold change /veh RHOB (11743442_s_at) / RFU RGS16 (11720943_a_at) / Fold change /veh RGS16 (11720943_a_at) / RFU RGS16 (11720944_at) / Fold change /veh RGS16 (11720944_at) / RFU, VPS4B / Fold change vs veh, VPS4B / RFU, CREB1 / Fold change vs veh, CREB1 / RFU, DNAJC13 / Fold change vs veh, DNAJC13 / RFU, GNAQ / Fold change vs veh, GNAQ / RFU, CDK5R1 / Fold change vs veh, CDK5R1 / RFU, ZRANB3 / Fold change vs veh, ZRANB3 / RFU, CUL4A / Fold change vs veh, CUL4A / RFU, CCNY / Fold change vs veh, CCNY / RFU, UFL1 / Fold change vs veh, UFL1 / RFU, COG3 / Fold change vs veh, COG3 / RFU, DIAPH2 / Fold change vs veh, DIAPH2 / RFU, SKA2 / Fold change vs veh, SKA2 / RFU, AFF3 / Fold change vs veh, AFF3 / RFU, LMF1 / Fold change vs veh, LMF1 / RFU, IPO11 / Fold change vs veh, IPO11 / RFU, DFFB / Fold change vs veh, DFFB / RFU, FOXP1 / Fold change vs veh, FOXP1 / RFU, CARD8 / Fold change vs veh, CARD8 / RFU, STRN3 / Fold change vs veh, STRN3 / RFU, ADK / Fold change vs veh, ADK / RFU, RASSF2 / Fold change vs veh, RASSF2 / RFU, WIPF1 / Fold change vs veh, WIPF1 / RFU, LARP1B / Fold change vs veh, LARP1B / RFU, RASA1 / Fold change vs veh, RASA1 / RFU, RB1 / Fold change vs veh, RB1 / RFU, PPFIA1 / Fold change vs veh, PPFIA1 / RFU, MAT2A / Fold change vs veh, MAT2A / RFU, CCT5 / Fold change vs veh, CCT5 / RFU, WDR92 / Fold change vs veh, WDR92 / RFU, CUX1 / Fold change vs veh, CUX1 / RFU, TTC7A / Fold change vs veh, TTC7A / RFU, TMEM135 / Fold change vs veh, TMEM135 / RFU, DEPTOR / Fold change vs veh, DEPTOR / RFU, CPM / Fold change vs veh, CPM / RFU, DNAJB6 / Fold change vs veh, DNAJB6 / RFU, CACNA2D3 / Fold change vs veh, CACNA2D3 / RFU, DTX4 / Fold change vs veh, DTX4 / RFU, TFCP2 / Fold change vs veh, TFCP2 / RFU, GMCL1 /// GMCL1P1 / Fold change vs veh, GMCL1 /// GMCL1P1 / RFU, AEBP2 / Fold change vs veh, AEBP2 / RFU, SNHG1 /// SNORD22 /// SNORD25 /// SNORD26 /// SNORD27 /// SNORD28 /// SNORD29 /// SNORD31 / Fold change vs veh, SNHG1 /// SNORD22 /// SNORD25 /// SNORD26 /// SNORD27 /// SNORD28 /// SNORD29 /// SNORD31 / Fold change (Aza/veh), C12orf56 (ProbeSet 11735607_a_at) / Fold change (ACY-1035/veh), C12orf56 (ProbeSet 11735607_a_at) / Fold change (Aza/veh), FGFR1OP (ProbeSet 11751329_s_at) / Fold change (ACY-1035/veh), FGFR1OP (ProbeSet 11751329_s_at) / Fold change (Aza/veh), VPS36 (ProbeSet 11739960_a_at) / Fold change (ACY-1035/veh), VPS36 (ProbeSet 11739960_a_at) / RFU SYPL1 (11715823_x_at) / Fold change /veh SYPL1 (11715823_x_at) / RFU IGFBP7 (11715501_s_at) / Fold change /veh IGFBP7 (11715501_s_at) / RFU REEP3 (11722064_at) / Fold change /veh REEP3 (11722064_at) / RFU IGLL1 (11728026_x_at) / Fold change /veh IGLL1 (11728026_x_at): dose or concentration left out as unconfirmed
Conditions: MV-4-11 cells, 48 hours

In the case of `Nc1ccc(-c2cccs2)cc1NC(=O)c1ccc2c(c1)cc(C1CC1)n2CCN1CCOCC1` [ACY-1035], the “RFU MYO3A (11730013_a_at)” value is reported as 90.31 RFU.
